Drawing on the supplement of paper PMC6580486, this text covers IC50 cell viability for 86 molecules.

The assay deals with U23674 (mouse alveolar rhabdomyosarcoma primary culture).
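Note: alveolar rhabdomyosarcoma tumor culture.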

`CNC(=O)c1cncc(/C=C/c2c(Cl)cccc2Cl)c1` displayed an IC50 cell viability above 10 µM.

In the case of `CCn1c(-c2nonc2N)nc2c(C#CC(C)(C)O)ncc(OCC3CCCN3)c21` (stereo unspecified), the IC50 cell viability was 5.2 µM.

On to `COc1cc(N2CCN(C(C)C)CC2)ccc1Nc1nc(Nc2ccc(F)cc2C(=O)NC[C@@H](O)CO)c2cc[nH]c2n1`, for which the IC50 cell viability is above 10 µM.

`CN1CCC(n2cnc(-c3ccc(F)cc3)c2-c2ccnc(NCCO)n2)CC1` had an IC50 cell viability above 10 µM.

`COc1cc2ncn(-c3cc(OCCc4ccccc4)c(C(N)=O)s3)c2cc1OC` displayed an IC50 cell viability above 10 µM.

On to `COC(=O)Nc1nc2ccc(Oc3ccc(NC(=O)Nc4cccc(C(=O)O)c4)cc3)cc2[nH]1`, for which the IC50 cell viability is above 10 µM.

As to `COc1cccc(-c2c[nH]c3c(N/N=C/c4ccncc4)ncnc23)c1`, the IC50 cell viability was above 10 µM.

For the molecule `Clc1ccc(-c2nn3ncccc3c2-c2ccnc(Nc3ccccc3)n2)cc1`, the IC50 cell viability is above 10 µM.

The molecule `COc1ccccc1-c1cc(/C=C2\C(=O)Nc3ncc(Br)cc32)cc(Br)c1O` displayed an IC50 cell viability above 10 µM.

`Cc1ccc(C(=O)NC(C)C)cc1-c1ccc(C(=O)NCC2CC2)cc1`: the IC50 cell viability was above 10 µM.

With `Fc1ccc(-c2nc3n(c2-c2ccncc2)CCS3)cc1`, the IC50 cell viability was above 10 µM.

Molecule `COc1ccc2[nH]c3c4[nH]c5ccc(OC)cc5c4c4c(c3c2c1)C(=O)NC4=O` showed an IC50 cell viability above 10 µM.

In the case of `CC(=O)Nc1cccc(C#Cc2cncnc2Nc2ccc(OCc3cccc(F)c3)c(Cl)c2)n1`, the IC50 cell viability was above 10 µM.

Consider `FC(F)(F)c1ccc(-c2nn3ncccc3c2-c2ccnc(Nc3ccc4c(c3)OCCO4)n2)cc1`, for which the IC50 cell viability was above 10 µM.

Take `Clc1ccc(CNc2nccc(-c3cnn4ncccc34)n2)cc1`: the IC50 cell viability was above 10 µM.

Regarding `CC1=C(C(=O)Nc2ccc3n[nH]c(C)c3c2)C(c2ccc(C(F)(F)F)cc2)CC(=O)N1` (stereo unspecified), the IC50 cell viability was above 10 µM.

With `COc1ccc(-c2cc3c(N)ncnc3o2)cc1`, the IC50 cell viability is above 10 µM.

Molecule `CCOc1ccc2c(-c3ccnc(Nc4cc(OC)cc(C(F)(F)F)c4)n3)cnn2n1` returned an IC50 cell viability above 10 µM.

`CC(C)c1ccc(Nc2nccc(-c3cnn4ncccc34)n2)cc1` displayed an IC50 cell viability above 10 µM.

`NC(=O)c1cc(-c2ccc(F)cc2)cc(-c2ccncc2)c1N` registered an IC50 cell viability above 10 µM.

In the case of `CS(=O)(=O)CCNCc1ccc(-c2ccc3ncnc(Nc4ccc(OCc5ccccc5)c(Cl)c4)c3c2)o1`, the IC50 cell viability is above 10 µM.

`NC(=O)Cc1ccccc1Oc1nccc(-c2c(-c3ccc(F)cc3)ncn2C2CCNCC2)n1`: the IC50 cell viability is above 10 µM.

In turn, `N#Cc1ccc2c(-c3ccnc(NC4CC4)n3)c(-c3ccc(F)cc3)nn2c1` gave an IC50 cell viability above 10 µM.

With `Cc1ccc(NC(=O)c2ccnc(N3CCCC3)c2)cc1-c1ccc(C(=O)NCC2CC2)cc1`, the IC50 cell viability was above 10 µM.

Turning to `CN(C)C(=O)O[C@H]1CN[C@H](C#Cc2cc3ncnc(Nc4ccc(OCc5cccc(F)c5)c(Cl)c4)c3s2)C1`, the IC50 cell viability is above 10 µM.

Regarding `Nc1ncnc2occ(-c3ccc(NC(=O)Nc4cccc(C(F)(F)F)c4)cc3)c12`, the IC50 cell viability came out at 5.2 µM.

The molecule `COc1cccc(/C=N/Nc2ncnc3c2cnn3-c2cccc(OC)c2)c1` displayed an IC50 cell viability above 10 µM.

In turn, `CNC(=O)c1cncc(/C=C/c2ccccc2C)c1` displayed an IC50 cell viability above 10 µM.

For the molecule `COc1cc(Nc2nccc(-c3cnn4ncccc34)n2)cc(OC)c1`, the IC50 cell viability was found to be 4 µM.

Molecule `CN(C)c1cc2c(Nc3ccc4nc(Cc5ccccc5)[nH]c4c3)ncnc2cn1` yielded an IC50 cell viability above 10 µM.

`CS(=O)(=O)CCNCc1ccc(-c2ccc3ncnc(Nc4ccc(OCc5ccccc5)c(C(F)(F)F)c4)c3c2)o1` showed an IC50 cell viability above 10 µM.

`OCCCNc1nccc(-c2c(-c3ccc(F)cc3)nn3cc(C(F)(F)F)ccc23)n1` gave an IC50 cell viability above 10 µM.

The molecule `NC(=O)c1cc(-c2ccncc2)cc(-c2ccccc2)c1N` registered an IC50 cell viability above 10 µM.

`NS(=O)(=O)c1cccc(-c2ccc3c(NC(=O)C4CC4)n[nH]c3c2)c1` returned an IC50 cell viability above 10 µM.

In the case of `Cc1cc(-c2ccco2)cc(C)c1/C=C/c1cncc(-c2nn[nH]n2)c1`, the IC50 cell viability is above 10 µM.

For the molecule `COc1cccc(-n2ncc3c(N/N=C/c4ccncc4)ncnc32)c1`, the IC50 cell viability is above 10 µM.

The molecule `CC(C)(CO)CNC(=O)c1ccc2[nH]c(O)c(N=Nc3ccc(S(N)(=O)=O)cc3)c2c1` returned an IC50 cell viability above 10 µM.

`COC(=O)Nc1nc2ccc(S(=O)(=O)c3ccc(NC(=O)Nc4cc(C(F)(F)F)ccc4F)cc3)cc2[nH]1` came in with an IC50 cell viability above 10 µM.

Consider `CNC(=O)c1cncc(/C=C/c2c(C)cccc2C)c1`, for which the IC50 cell viability is above 10 µM.

In turn, `NS(=O)(=O)c1cccc(-c2cc3ccncc3cc2OCc2ccccc2)c1` showed an IC50 cell viability above 10 µM.

As for `Cc1ccc(O)cc1Nc1ccnc2cc(-c3ccccn3)ccc12`, the IC50 cell viability was above 10 µM.

As for `NS(=O)(=O)c1ccc(Nc2ncc(-c3ccccc3)o2)cc1`, the IC50 cell viability was above 10 µM.

Molecule `NC(=O)c1ccc2c(-c3ccnc(NCCCO)n3)c(-c3ccc(F)cc3)nn2c1` had an IC50 cell viability above 10 µM.

The molecule `COc1ccc2cc(-c3c(-c4ccncc4)nc(-c4ccc([S+](C)[O-])cc4)n3C)ccc2c1` (stereo unspecified) gave an IC50 cell viability above 10 µM.

For `CC(C)c1ccc(-c2cc(-c3cn[nH]c3-c3ccccn3)ccn2)cc1`, the IC50 cell viability was above 10 µM.

The molecule `NS(=O)(=O)c1ccc(N=Nc2c(O)[nH]c3ccc(C(=O)NCc4ccncc4)cc23)cc1` displayed an IC50 cell viability above 10 µM.

`NS(=O)(=O)c1ccc(-c2ccc3c(NC(=O)C4CC4)n[nH]c3c2)cc1` had an IC50 cell viability above 10 µM.

As to `C[C@@H](Oc1cc(-n2cnc3ccc(OC4CCN(C)CC4)cc32)sc1C(N)=O)c1ccccc1Cl`, the IC50 cell viability turned out to be 0.9 µM.

On to `Cc1ccc(C(=O)NC2CCCCC2)cc1-c1ccc(C(=O)NCC2CC2)cc1`, for which the IC50 cell viability was above 10 µM.

As for `NC(=O)c1sc(-n2cnc3cc(C(F)(F)F)ccc32)cc1OCc1ccccc1Br`, the IC50 cell viability is above 10 µM.

In turn, `CCCN(CCS(C)(=O)=O)Cc1ccc(-c2ccc3ncnc(Nc4ccc(OCc5cccc(F)c5)c(Cl)c4)c3c2)o1` showed an IC50 cell viability above 10 µM.

Molecule `Nc1nc(-c2ccc(F)cc2)c(-c2ccc3ncccc3n2)s1` returned an IC50 cell viability above 10 µM.

Turning to `CN(C)CCCNc1nccc(-c2c(-c3ccc(F)cc3)nn3cc(C(F)(F)F)ccc23)n1`, the IC50 cell viability is 2.2 µM.

Molecule `c1ccc(Oc2ccc(Nc3ncc(-c4ccccc4)o3)cc2)cc1` gave an IC50 cell viability above 10 µM.

`c1ccc(-c2nc3n(c2-c2ccc4c(c2)OCO4)CCC3)nc1` had an IC50 cell viability above 10 µM.

`Cc1cc(O)cc(C)c1/C=C/c1cncc(C(=O)N(C)C)c1`: the IC50 cell viability was above 10 µM.

`Cc1cc(-c2ccccn2)cc(C)c1/C=C/c1cncc(-c2nn[nH]n2)c1` yielded an IC50 cell viability above 10 µM.

On to `COc1cc(C)c(NC(=O)CN(C)C)cc1Nc1nc(Nc2cccc(F)c2C(N)=O)c2cc[nH]c2n1`, for which the IC50 cell viability is above 10 µM.

`O=C1Nc2ccc(C(=O)c3ccco3)cc2/C1=C/c1cc(Cl)c(O)c(Cl)c1` showed an IC50 cell viability above 10 µM.

Consider `COC(=O)Nc1nc2ccc(Oc3ccc(NC(=O)Nc4cccc(Br)c4)cc3)cc2[nH]1`, for which the IC50 cell viability is above 10 µM.

Turning to `c1ccc(-c2[nH]ncc2-c2ccnc(-c3ccc(OCCN4CCOCC4)cc3)c2)nc1`, the IC50 cell viability was above 10 µM.

`CNC(=O)c1sc(-n2cnc3cc(OC)c(OC)cc32)cc1OCc1ccccc1C(F)(F)F`: the IC50 cell viability was above 10 µM.

On to `O=C(O[C@H]1CN[C@H](C#Cc2cc3ncnc(Nc4ccc(Cc5ccccc5)cc4)c3s2)C1)N1CCOCC1`, for which the IC50 cell viability was above 10 µM.

The molecule `COc1cccc(-n2ncc3c(N/N=C/c4ccc(F)cc4)ncnc32)c1` returned an IC50 cell viability above 10 µM.

Molecule `Cc1nnc(-c2ccc(C)c(-c3ccc(C(=O)NCc4ccc(Cl)cc4)cc3)c2)o1` yielded an IC50 cell viability above 10 µM.

In the case of `Nc1nccc(-c2c(-c3ccc(F)cc3)ncn2C2CCC(O)CC2)n1` (stereo unspecified), the IC50 cell viability was above 10 µM.

In turn, `CCn1c(-c2nonc2N)nc2cnc(Oc3cccc(NC(=O)c4ccc(OCCN5CCOCC5)cc4)c3)cc21` yielded an IC50 cell viability above 10 µM.

`CN(C)C(=O)O[C@@H]1CN[C@@H](C#Cc2cc3ncnc(Nc4ccc(OCc5cccc(F)c5)c(Cl)c4)c3s2)C1` gave an IC50 cell viability above 10 µM.

Molecule `NS(=O)(=O)c1ccc(Nc2cc(-c3ccc(O)c(F)c3)[nH]n2)cc1` returned an IC50 cell viability above 10 µM.

The molecule `COc1ccc(-c2nn3ncccc3c2-c2ccnc(Nc3ccc(Cl)c(C(F)(F)F)c3)n2)cc1` returned an IC50 cell viability above 10 µM.

`Cc1cc(O)cc(C)c1/C=C/c1cncc(C(=O)OC(C)(C)C)c1` displayed an IC50 cell viability above 10 µM.

`CCn1cc(-c2ccnc3[nH]ccc23)c(-c2cccc(NC(=O)Nc3ccc(OCc4ccccc4)cc3)c2)n1` yielded an IC50 cell viability above 10 µM.

The molecule `O=c1[nH]c2ccc(N=Cc3c(O)[nH]c4ccccc34)cc2[nH]1` yielded an IC50 cell viability above 10 µM.

Molecule `COc1cc(C)c(N(C)C(=O)CN(C)C)cc1Nc1nc(Nc2cccc(F)c2C(N)=O)c2cc[nH]c2n1` yielded an IC50 cell viability above 10 µM.

`Nc1nc(-c2ccccn2)c(-c2ccc3ncccc3n2)s1` returned an IC50 cell viability above 10 µM.

As to `CCn1c(-c2nonc2N)nc2c(C#CC(C)(C)O)nc(CN3CCCC3)cc21`, the IC50 cell viability was above 10 µM.

`Cc1nn(C)c2cc(N(C)c3ccnc(Nc4cccc(S(N)(=O)=O)c4)n3)ccc12` returned an IC50 cell viability above 10 µM.

`COc1cccc(-n2ncc3c(N/N=C/c4cccc(F)c4)ncnc32)c1` returned an IC50 cell viability above 10 µM.

Turning to `CCn1c(-c2nonc2N)nc2ccccc21`, the IC50 cell viability was above 10 µM.

For `NC(=O)c1sc(-n2cnc3ccc(C(F)(F)F)cc32)cc1OCc1ccccc1Br`, the IC50 cell viability was above 10 µM.

In the case of `Nc1nccc(-c2c(-c3ccc(F)cc3)ncn2CCCN2CCOCC2)n1`, the IC50 cell viability is above 10 µM.

In turn, `COc1cccc(-n2ncc3c(N/N=C/c4ccc(C)cc4)ncnc32)c1` displayed an IC50 cell viability above 10 µM.

`CNC(=O)c1ncccc1Nc1nc(Nc2cc3c(cc2OC)CCCN3C(=O)CN(C)C)nc2[nH]ccc12` registered an IC50 cell viability above 10 µM.

On to `NC(=O)c1sc(-n2cnc3ccccc32)cc1OCc1ccccc1Br`, for which the IC50 cell viability is above 10 µM.

`COc1cc(Nc2ncc(-c3ccccc3)o2)cc(OC)c1` yielded an IC50 cell viability above 10 µM.

Molecule `[O-][S+]1CCN(Cc2ccc(-c3ccc4ncnc(Nc5ccc(OCc6ccccc6)c(F)c5)c4c3)o2)CC1` gave an IC50 cell viability above 10 µM.
